Assay results published in the kinase profiling compilation of Christmann-Franck et al. (2016).
Several values for one entry are separate records, joined by “and”; a condition that tells them apart may be missing. Identical values can stand only once.

Key:
Test in all cases: radiometric filter-binding kinase assay, Kinase HotSpot
Settings in all cases: compound 0.5 µM; ATP 10 µM
ACVR1B (human) = ACVR1B (human) (UniProt P36896)
CAMK1 (human) = CAMK1 (human) (UniProt Q14012)
CAMK2D (human) = CAMK2D (human) (UniProt Q13557)
CDC42BPA (human) = CDC42BPA (human) (UniProt Q5VT25)
CDK7 CCNH MNAT1 (human) = CDK7 CCNH MNAT1 (human) (UniProt P50613+P51948+P51946)
CDK9 CCNK (human) = CDK9 CCNK (human) (UniProt O75909+P50750)
CDK9 CCNT1 (human) = CDK9 CCNT1 (human) (UniProt P50750+O60563)
CSK (human) = CSK (human) (UniProt P41240)
CSK (human), sequence (P41240 whole entry, looked up): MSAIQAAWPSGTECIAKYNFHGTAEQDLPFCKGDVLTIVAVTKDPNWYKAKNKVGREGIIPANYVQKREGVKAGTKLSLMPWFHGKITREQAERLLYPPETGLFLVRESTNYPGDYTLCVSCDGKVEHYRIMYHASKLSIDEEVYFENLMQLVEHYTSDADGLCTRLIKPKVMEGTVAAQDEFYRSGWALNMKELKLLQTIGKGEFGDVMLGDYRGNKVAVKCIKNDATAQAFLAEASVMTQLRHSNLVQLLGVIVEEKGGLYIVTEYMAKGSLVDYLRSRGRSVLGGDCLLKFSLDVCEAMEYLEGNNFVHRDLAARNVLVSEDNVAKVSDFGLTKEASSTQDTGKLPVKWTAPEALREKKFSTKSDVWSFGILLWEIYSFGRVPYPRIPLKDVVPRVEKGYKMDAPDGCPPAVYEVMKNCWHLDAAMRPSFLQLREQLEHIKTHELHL

CSNK1G3 (human) = CSNK1G3 (human) (UniProt Q9Y6M4)
DAPK1 (human) = DAPK1 (human) (UniProt P53355)
DMPK (human) = DMPK (human) (UniProt Q09013)
DYRK2 (human) = DYRK2 (human) (UniProt Q92630)
EPHA4 (human) = EPHA4 (human) (UniProt P54764)
FGFR3 (human) = FGFR3 (human) (UniProt P22607)
FLT1 (human) = FLT1 (human) (UniProt P17948)
FLT1 (human), sequence (P17948 whole entry, looked up): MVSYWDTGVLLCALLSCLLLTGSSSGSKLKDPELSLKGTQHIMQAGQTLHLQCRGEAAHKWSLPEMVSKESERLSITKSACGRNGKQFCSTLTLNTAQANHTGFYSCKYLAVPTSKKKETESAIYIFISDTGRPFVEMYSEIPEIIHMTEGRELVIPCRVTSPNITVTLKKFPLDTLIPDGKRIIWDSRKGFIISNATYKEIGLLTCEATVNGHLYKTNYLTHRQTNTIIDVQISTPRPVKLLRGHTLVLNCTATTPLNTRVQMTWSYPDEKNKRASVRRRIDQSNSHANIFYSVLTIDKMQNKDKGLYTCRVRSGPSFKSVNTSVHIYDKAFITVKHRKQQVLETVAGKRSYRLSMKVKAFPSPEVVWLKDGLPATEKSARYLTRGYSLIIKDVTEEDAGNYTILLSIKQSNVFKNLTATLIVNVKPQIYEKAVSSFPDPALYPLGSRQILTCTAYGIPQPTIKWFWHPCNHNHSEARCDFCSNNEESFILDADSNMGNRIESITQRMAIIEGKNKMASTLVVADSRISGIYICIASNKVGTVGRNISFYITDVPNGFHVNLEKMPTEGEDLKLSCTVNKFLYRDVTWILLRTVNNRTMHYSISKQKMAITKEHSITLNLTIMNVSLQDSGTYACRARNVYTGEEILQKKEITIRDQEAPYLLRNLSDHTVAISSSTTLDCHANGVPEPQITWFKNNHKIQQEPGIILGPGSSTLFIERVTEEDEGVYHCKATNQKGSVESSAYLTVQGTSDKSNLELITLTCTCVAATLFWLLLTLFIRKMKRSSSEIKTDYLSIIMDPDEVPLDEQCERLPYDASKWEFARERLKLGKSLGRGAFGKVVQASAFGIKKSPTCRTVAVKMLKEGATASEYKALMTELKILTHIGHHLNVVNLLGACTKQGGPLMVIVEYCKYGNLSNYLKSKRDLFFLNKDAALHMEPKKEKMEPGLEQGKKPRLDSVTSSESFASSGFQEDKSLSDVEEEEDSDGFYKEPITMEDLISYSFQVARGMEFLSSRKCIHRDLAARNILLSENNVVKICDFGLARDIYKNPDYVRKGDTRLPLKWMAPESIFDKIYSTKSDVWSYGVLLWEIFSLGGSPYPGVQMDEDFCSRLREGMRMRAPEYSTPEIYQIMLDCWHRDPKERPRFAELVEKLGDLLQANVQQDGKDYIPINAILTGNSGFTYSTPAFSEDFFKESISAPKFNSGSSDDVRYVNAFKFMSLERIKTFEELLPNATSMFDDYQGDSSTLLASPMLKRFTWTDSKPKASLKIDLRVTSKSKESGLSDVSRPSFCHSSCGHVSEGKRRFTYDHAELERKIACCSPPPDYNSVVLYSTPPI

GSK3A (human) = GSK3A (human) (UniProt P49840)
[1] = biological target: JAK1 JH1 catalytic (human) (UniProt P23458)
LCK (human) = LCK (human) (UniProt P06239)
LYN (human) = LYN (human) (UniProt P07948)
MAP3K14 (human) = MAP3K14 (human) (UniProt Q99558)
MAP3K8 (human) = MAP3K8 (human) (UniProt P41279)
MAPKAPK5 (human) = MAPKAPK5 (human) (UniProt Q8IW41)
MAPKAPK5 (human), sequence (Q8IW41 whole entry, looked up): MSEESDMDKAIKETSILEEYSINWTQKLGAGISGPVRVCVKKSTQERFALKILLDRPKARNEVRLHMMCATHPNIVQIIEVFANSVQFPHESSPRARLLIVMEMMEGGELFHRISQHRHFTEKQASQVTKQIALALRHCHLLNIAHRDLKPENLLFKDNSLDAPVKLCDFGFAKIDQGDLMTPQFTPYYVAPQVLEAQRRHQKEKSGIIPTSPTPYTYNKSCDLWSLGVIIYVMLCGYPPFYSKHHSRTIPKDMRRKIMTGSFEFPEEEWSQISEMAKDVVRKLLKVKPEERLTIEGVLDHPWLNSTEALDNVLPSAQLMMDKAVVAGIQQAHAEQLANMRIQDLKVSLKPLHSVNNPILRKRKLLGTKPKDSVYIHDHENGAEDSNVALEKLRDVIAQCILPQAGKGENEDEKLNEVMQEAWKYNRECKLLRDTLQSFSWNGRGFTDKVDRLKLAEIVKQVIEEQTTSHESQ

MARK1 (human) = MARK1 (human) (UniProt Q9P0L2)
MERTK (human) = MERTK (human) (UniProt Q12866)
NTRK3 (human) = NTRK3 (human) (UniProt Q16288)
NUAK1 (human) = NUAK1 (human) (UniProt O60285)
NUAK2 (human) = NUAK2 (human) (UniProt Q9H093)
PAK2 (human) = PAK2 (human) (UniProt Q13177)
PAK3 (human) = PAK3 (human) (UniProt O75914)
PDGFRA (human) = PDGFRA (human) (UniProt P16234)
PDGFRA (human), sequence (P16234 whole entry, looked up): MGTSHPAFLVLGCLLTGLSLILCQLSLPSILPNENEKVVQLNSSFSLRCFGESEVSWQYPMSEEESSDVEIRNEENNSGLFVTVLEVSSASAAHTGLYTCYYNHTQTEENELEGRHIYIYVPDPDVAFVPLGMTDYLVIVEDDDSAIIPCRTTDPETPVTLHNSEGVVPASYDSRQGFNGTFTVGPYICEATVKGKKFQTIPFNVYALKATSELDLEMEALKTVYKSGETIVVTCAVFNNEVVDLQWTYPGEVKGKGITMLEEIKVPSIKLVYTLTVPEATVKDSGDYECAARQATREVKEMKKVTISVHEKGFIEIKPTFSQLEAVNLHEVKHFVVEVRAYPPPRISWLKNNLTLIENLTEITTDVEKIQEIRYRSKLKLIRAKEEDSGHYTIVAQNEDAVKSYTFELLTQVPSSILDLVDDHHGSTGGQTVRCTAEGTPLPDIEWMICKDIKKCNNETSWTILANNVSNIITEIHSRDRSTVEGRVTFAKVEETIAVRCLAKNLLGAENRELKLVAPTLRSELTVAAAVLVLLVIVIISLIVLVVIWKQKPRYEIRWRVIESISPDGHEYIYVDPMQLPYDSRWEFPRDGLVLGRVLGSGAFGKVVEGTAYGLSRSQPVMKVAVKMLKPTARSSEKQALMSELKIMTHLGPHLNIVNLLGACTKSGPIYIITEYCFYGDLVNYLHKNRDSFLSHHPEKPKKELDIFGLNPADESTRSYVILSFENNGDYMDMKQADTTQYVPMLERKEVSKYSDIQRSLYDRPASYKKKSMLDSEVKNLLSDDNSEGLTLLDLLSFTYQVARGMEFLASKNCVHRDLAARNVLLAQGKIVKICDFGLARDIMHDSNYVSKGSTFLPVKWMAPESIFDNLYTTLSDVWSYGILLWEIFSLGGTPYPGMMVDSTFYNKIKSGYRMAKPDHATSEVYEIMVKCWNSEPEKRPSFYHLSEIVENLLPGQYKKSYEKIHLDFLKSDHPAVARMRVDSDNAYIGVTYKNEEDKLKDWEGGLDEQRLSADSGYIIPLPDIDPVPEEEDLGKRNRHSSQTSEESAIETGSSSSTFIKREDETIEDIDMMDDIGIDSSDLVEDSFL

PHKG1 (human) = PHKG1 (human) (UniProt Q16816)
PHKG1 (human), sequence (Q16816 whole entry, looked up): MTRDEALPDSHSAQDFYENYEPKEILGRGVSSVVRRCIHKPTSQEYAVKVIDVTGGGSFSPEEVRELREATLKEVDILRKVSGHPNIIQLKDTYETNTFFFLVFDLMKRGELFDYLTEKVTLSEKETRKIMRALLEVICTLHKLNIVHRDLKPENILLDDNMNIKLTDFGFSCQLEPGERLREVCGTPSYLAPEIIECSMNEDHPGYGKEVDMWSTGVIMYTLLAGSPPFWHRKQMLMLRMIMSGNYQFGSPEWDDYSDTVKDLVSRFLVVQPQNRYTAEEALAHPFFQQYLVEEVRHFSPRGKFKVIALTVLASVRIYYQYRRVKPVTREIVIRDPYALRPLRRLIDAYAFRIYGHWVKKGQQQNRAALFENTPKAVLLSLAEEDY

PKN1 (human) = PKN1 (human) (UniProt Q16512)
PNCK (human) = PNCK (human) (UniProt Q6P2M8)
PRKACA (human) = PRKACA (human) (UniProt P17612)
PRKCH (human) = PRKCH (human) (UniProt P24723)
PRKCH (human), sequence (P24723 whole entry, looked up): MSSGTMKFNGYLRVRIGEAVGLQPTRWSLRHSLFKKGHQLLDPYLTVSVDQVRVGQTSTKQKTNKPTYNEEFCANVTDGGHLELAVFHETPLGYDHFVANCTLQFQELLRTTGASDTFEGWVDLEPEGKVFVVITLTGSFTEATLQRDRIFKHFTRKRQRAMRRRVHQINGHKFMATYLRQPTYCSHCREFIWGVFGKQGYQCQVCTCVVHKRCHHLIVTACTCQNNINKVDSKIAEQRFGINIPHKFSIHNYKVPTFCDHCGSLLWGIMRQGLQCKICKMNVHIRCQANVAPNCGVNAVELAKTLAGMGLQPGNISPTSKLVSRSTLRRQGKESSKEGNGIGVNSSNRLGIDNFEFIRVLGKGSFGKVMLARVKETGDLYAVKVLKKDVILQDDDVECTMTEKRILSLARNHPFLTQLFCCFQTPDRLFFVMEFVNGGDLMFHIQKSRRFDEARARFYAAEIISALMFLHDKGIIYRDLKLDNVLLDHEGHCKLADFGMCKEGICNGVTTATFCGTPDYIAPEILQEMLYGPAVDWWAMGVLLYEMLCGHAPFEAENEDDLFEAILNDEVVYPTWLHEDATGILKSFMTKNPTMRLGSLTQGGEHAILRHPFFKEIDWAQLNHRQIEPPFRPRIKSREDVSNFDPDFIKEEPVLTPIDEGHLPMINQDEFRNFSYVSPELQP

PTK2 (human) = PTK2 (human) (UniProt Q05397)
PTK2B (human) = PTK2B (human) (UniProt Q14289)
SRPK3 (human) = SRPK3 (human) (UniProt Q9UPE1)
STK3 (human) = STK3 (human) (UniProt Q13188)
TEC (human) = TEC (human) (UniProt P42680)
TSSK2 (human) = TSSK2 (human) (UniProt Q96PF2)
WEE1 (human) = WEE1 (human) (UniProt P30291)

CAMK1 (human), sequence (Q14012 whole entry, looked up): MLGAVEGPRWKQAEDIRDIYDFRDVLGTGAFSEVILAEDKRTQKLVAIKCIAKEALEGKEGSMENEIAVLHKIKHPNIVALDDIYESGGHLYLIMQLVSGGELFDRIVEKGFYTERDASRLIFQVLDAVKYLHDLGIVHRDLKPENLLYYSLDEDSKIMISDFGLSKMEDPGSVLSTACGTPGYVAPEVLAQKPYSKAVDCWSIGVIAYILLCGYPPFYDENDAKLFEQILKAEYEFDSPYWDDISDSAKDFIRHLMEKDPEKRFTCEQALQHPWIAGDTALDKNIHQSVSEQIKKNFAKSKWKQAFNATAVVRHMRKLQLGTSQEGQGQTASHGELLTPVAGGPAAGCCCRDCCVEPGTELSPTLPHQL

COc1cc2nccc(Oc3ccc(NC(=S)NC(=O)c4ccccc4C)cc3)c2cc1OC
residual activity (ACVR1B (human)): 92.1% | residual activity (CAMK1 (human)): 101% | residual activity (CAMK2D (human)): 102% | residual activity (CDC42BPA (human)): 93.9% | residual activity (CDK7 CCNH MNAT1 (human)): 97.7% | residual activity (CDK9 CCNK (human)): 108% | residual activity (CDK9 CCNT1 (human)): 104% | residual activity (CSK (human)): 75.3% | residual activity (CSNK1G3 (human)): 93.3% | residual activity (DAPK1 (human)): 101% | residual activity (DMPK (human)): 102% | residual activity (DYRK2 (human)): 87.5% | residual activity (EPHA4 (human)): 81.4% | residual activity (FGFR3 (human)): 88.8% | residual activity (FLT1 (human)): 89.8% | residual activity (GSK3A (human)): 91.4% | residual activity [1]: 96.7% | residual activity (LCK (human)): 1.62% | residual activity (LYN (human)): 16.9% and 31.8% | residual activity (MAP3K14 (human)): 106% | residual activity (MAP3K8 (human)): 94.1% | residual activity (MAPKAPK5 (human)): 99% | residual activity (MARK1 (human)): 91.4% | residual activity (MERTK (human)): 32.3% | residual activity (NTRK3 (human)): 86.1% | residual activity (NUAK1 (human)): 82.5% | residual activity (NUAK2 (human)): 106% | residual activity (PAK2 (human)): 91.2% | residual activity (PAK3 (human)): 99.7% | residual activity (PDGFRA (human)): 12.5% | residual activity (PHKG1 (human)): 89.2% | residual activity (PKN1 (human)): 99.2% | residual activity (PNCK (human)): 93.2% | residual activity (PRKACA (human)): 91.8% | residual activity (PRKCH (human)): 95.1% | residual activity (PTK2 (human)): 90.7% | residual activity (PTK2B (human)): 93.4% | residual activity (SRPK3 (human)): 95.9% | residual activity (STK3 (human)): 86% | residual activity (TEC (human)): 90.8% | residual activity (TSSK2 (human)): 86.7% | residual activity (WEE1 (human)): 89.6%

COc1ccc(-c2cnc3c(-c4ccsc4)cnn3c2)cc1
residual activity (ACVR1B (human)): 100% | residual activity (CAMK1 (human)): 104% | residual activity (CAMK2D (human)): 92% | residual activity (CDC42BPA (human)): 86.8% | residual activity (CDK7 CCNH MNAT1 (human)): 100% | residual activity (CDK9 CCNK (human)): 76.9% | residual activity (CDK9 CCNT1 (human)): 73.8% | residual activity (CSK (human)): 95.3% | residual activity (CSNK1G3 (human)): 102% | residual activity (DAPK1 (human)): 103% | residual activity (DMPK (human)): 100% | residual activity (DYRK2 (human)): 71.1% | residual activity (EPHA4 (human)): 87.6% | residual activity (FGFR3 (human)): 81.5% | residual activity (FLT1 (human)): 75.7% | residual activity (GSK3A (human)): 92.5% | residual activity [1]: 87% | residual activity (LCK (human)): 81.6% | residual activity (LYN (human)): 81.8% and 92.7% | residual activity (MAP3K14 (human)): 106% | residual activity (MAP3K8 (human)): 105% | residual activity (MAPKAPK5 (human)): 90.7% | residual activity (MARK1 (human)): 98.9% | residual activity (MERTK (human)): 81.2% | residual activity (NTRK3 (human)): 49.8% | residual activity (NUAK1 (human)): 77.9% | residual activity (NUAK2 (human)): 138% | residual activity (PAK2 (human)): 79.1% | residual activity (PAK3 (human)): 96.4% | residual activity (PDGFRA (human)): 74.8% | residual activity (PHKG1 (human)): 73.2% | residual activity (PKN1 (human)): 93.1% | residual activity (PNCK (human)): 90.9% | residual activity (PRKACA (human)): 96.1% | residual activity (PRKCH (human)): 111% | residual activity (PTK2 (human)): 93% | residual activity (PTK2B (human)): 81.8% | residual activity (SRPK3 (human)): 94.1% | residual activity (STK3 (human)): 97.7% | residual activity (TEC (human)): 124% | residual activity (TSSK2 (human)): 99% | residual activity (WEE1 (human)): 102%

O=c1cc(N2CCNCC2)oc2c(-c3ccccc3)cccc12
residual activity (ACVR1B (human)): 105% | residual activity (CAMK1 (human)): 99.2% | residual activity (CAMK2D (human)): 93.6% | residual activity (CDC42BPA (human)): 107% | residual activity (CDK7 CCNH MNAT1 (human)): 99.3% | residual activity (CDK9 CCNK (human)): 94.2% | residual activity (CDK9 CCNT1 (human)): 98.8% | residual activity (CSK (human)): 89.7% | residual activity (CSNK1G3 (human)): 102% | residual activity (DAPK1 (human)): 91.1% | residual activity (DMPK (human)): 96.2% | residual activity (DYRK2 (human)): 96.8% | residual activity (EPHA4 (human)): 100% | residual activity (FGFR3 (human)): 96.3% | residual activity (FLT1 (human)): 86.6% | residual activity (GSK3A (human)): 99.7% | residual activity [1]: 108% | residual activity (LCK (human)): 104% | residual activity (LYN (human)): 101% and 95.8% | residual activity (MAP3K14 (human)): 110% | residual activity (MAP3K8 (human)): 95.2% | residual activity (MAPKAPK5 (human)): 104% | residual activity (MARK1 (human)): 99.3% | residual activity (MERTK (human)): 98.3% | residual activity (NTRK3 (human)): 99.8% | residual activity (NUAK1 (human)): 95.5% | residual activity (NUAK2 (human)): 89.2% | residual activity (PAK2 (human)): 99.8% | residual activity (PAK3 (human)): 99.8% | residual activity (PDGFRA (human)): 97.4% | residual activity (PHKG1 (human)): 90.7% | residual activity (PKN1 (human)): 99.6% | residual activity (PNCK (human)): 99.8% | residual activity (PRKACA (human)): 110% | residual activity (PRKCH (human)): 97% | residual activity (PTK2 (human)): 99% | residual activity (PTK2B (human)): 88.3% | residual activity (SRPK3 (human)): 94.4% | residual activity (STK3 (human)): 102% | residual activity (TEC (human)): 99.8% | residual activity (TSSK2 (human)): 101% | residual activity (WEE1 (human)): 83.4%

CS(=O)c1ccc(-c2nc(-c3ccc(F)cc3)c(-c3ccncc3)[nH]2)cc1 (configuration not stated)
residual activity (ACVR1B (human)): 127% | residual activity (CAMK1 (human)): 106% | residual activity (CAMK2D (human)): 103% | residual activity (CDC42BPA (human)): 94.3% | residual activity (CDK7 CCNH MNAT1 (human)): 96.8% | residual activity (CDK9 CCNK (human)): 98.6% | residual activity (CDK9 CCNT1 (human)): 83.8% | residual activity (CSK (human)): 87.7% | residual activity (CSNK1G3 (human)): 103% | residual activity (DAPK1 (human)): 90.3% | residual activity (DMPK (human)): 103% | residual activity (DYRK2 (human)): 98.7% | residual activity (EPHA4 (human)): 95.6% | residual activity (FGFR3 (human)): 97% | residual activity (FLT1 (human)): 95.2% | residual activity (GSK3A (human)): 94.1% | residual activity [1]: 105% | residual activity (LCK (human)): 95% | residual activity (LYN (human)): 91.8% and 99.1% | residual activity (MAP3K14 (human)): 118% | residual activity (MAP3K8 (human)): 92.1% | residual activity (MAPKAPK5 (human)): 92.5% | residual activity (MARK1 (human)): 105% | residual activity (MERTK (human)): 93.9% | residual activity (NTRK3 (human)): 98% | residual activity (NUAK1 (human)): 94.4% | residual activity (NUAK2 (human)): 131% | residual activity (PAK2 (human)): 78% | residual activity (PAK3 (human)): 102% | residual activity (PDGFRA (human)): 98.8% | residual activity (PHKG1 (human)): 94.1% | residual activity (PKN1 (human)): 96.5% | residual activity (PNCK (human)): 102% | residual activity (PRKACA (human)): 98.9% | residual activity (PTK2 (human)): 95.5% | residual activity (PTK2B (human)): 92.5% | residual activity (SRPK3 (human)): 99.4% | residual activity (STK3 (human)): 102% | residual activity (TEC (human)): 113% | residual activity (TSSK2 (human)): 95.7% | residual activity (WEE1 (human)): 92.1%
